Measured values published in ChEMBL document CHEMBL1201862, “PubChem BioAssay data set” (2004).
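Cultured in 96-well plates, cells were exposed to test compound for 48 hours across five concentrations. GI50 marks 50% less growth.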 Calls of active or inactive are those of the source. Rule as the data show it: active = GI50 up to about 1.1 µM and inactive = higher.

Columns and labels:
Test in all cases: inhibition of tumour cell growth, NCI panel, 48 h
[1] = test system: HCT-116
[2] = test system: SF-539
[3] = test system: RXF 631
[4] = test system: Malme-3M
[5] = test system: SK-MEL-2
[6] = test system: NCI-H23
[7] = test system: SK-MEL-28
[8] = test system: HOP-62
[9] = test system: HL-60
[10] = test system: SF-268
[11] = test system: RPMI-8226
[12] = test system: HCC 2998
[13] = test system: M19-MEL
[14] = test system: CAKI-1
[15] = test system: LXFL 529
[16] = test system: SR
[17] = test system: HOP-92
[18] = test system: DMS-273
[19] = test system: UACC-62
[20] = test system: OVCAR-4
[21] = test system: IGROV-1
[22] = test system: NCI-H522
[23] = test system: DMS-114
[24] = test system: K562
[25] = test system: UO-31
[26] = test system: COLO 205
[27] = test system: DLD-1
[28] = test system: MOLT-4
[29] = test system: NCI-H226
[30] = test system: SK-OV-3
[31] = test system: 786-0
[32] = test system: M14
[33] = test system: SNB-78
[34] = test system: SNB-75
[35] = test system: CCRF-CEM
[36] = test system: NCI-H460
[37] = test system: OVCAR-5
[38] = test system: ACHN
[39] = test system: SN12C
[40] = test system: SW-620
[41] = test system: XF498
[42] = test system: SNB-19
[43] = test system: U-251
[44] = test system: SF-295
[45] = test system: OVCAR-8
[46] = test system: HOP-18
[47] = test system: KM-20L2
[48] = test system: A498
[49] = test system: EKVX
[50] = test system: SK-MEL-5
[51] = test system: HCT-15
[52] = test system: OVCAR-3
[53] = test system: HT-29
[54] = test system: RXF 393
[55] = test system: TK-10
[56] = test system: UACC-257
[57] = test system: A549
[58] = test system: LOX IMVI
[59] = test system: KM12

## Cc1c2n(c3ccccc13)CC1CON(C)C21 (stereo not given)
[1]
  GI50: > 100 µM (inactive)
[2]
  GI50: > 100 µM (inactive)
[3]
  GI50: > 100 µM (inactive)
[4]
  GI50: > 100 µM (inactive)
[5]
  GI50: > 100 µM (inactive)
[6]
  GI50: > 100 µM (inactive)
[7]
  GI50: > 100 µM (inactive)
[8]
  GI50: > 100 µM (inactive)
[9]
  GI50: > 100 µM (inactive)
[10]
  GI50: > 100 µM (inactive)
[11]
  GI50: > 100 µM (inactive)
[12]
  GI50: > 100 µM (inactive)
[13]
  GI50: > 100 µM (inactive)
[14]
  GI50: > 100 µM (inactive)
[15]
  GI50: > 100 µM (inactive)
[16]
  GI50: > 100 µM (inactive)
[17]
  GI50: > 100 µM (inactive)
[18]
  GI50: > 100 µM (inactive)
[19]
  GI50: > 100 µM (inactive)
[20]
  GI50: > 100 µM (inactive)
[21]
  GI50: > 100 µM (inactive)
[22]
  GI50: > 100 µM (inactive)
[23]
  GI50: > 100 µM (inactive)
[24]
  GI50: > 100 µM (inactive)
[25]
  GI50: > 100 µM (inactive)
[26]
  GI50: > 100 µM (inactive)
[27]
  GI50: > 100 µM (inactive)
[28]
  GI50: > 100 µM (inactive)
[29]
  GI50: > 100 µM (inactive)
[30]
  GI50: > 100 µM (inactive)
[31]
  GI50: > 100 µM (inactive)
[32]
  GI50: > 100 µM (inactive)
[33]
  GI50: > 100 µM (inactive)
[34]
  GI50: > 100 µM (inactive)
[35]
  GI50: > 100 µM (inactive)

## Clc1ccc(C2N3CCCCC3[C@@H]3c4[nH]c5ccccc5c4CCN23)cc1 (stereo not given in full)
[36]
  GI50: 61.8 µM (inactive)
[1]
  GI50: 30.2 µM (inactive)
[37]
  GI50: 56.8 µM (inactive)
[2]
  GI50: 44.1 µM (inactive)
[38]
  GI50: 39.2 µM (inactive)
[39]
  GI50: 24.1 µM (inactive)
[40]
  GI50: 44.9 µM (inactive)
[4]
  GI50: 19.7 µM (inactive)
[41]
  GI50: 64.4 µM (inactive)
[42]
  GI50: 93.3 µM (inactive)
[43]
  GI50: 57.9 µM (inactive)
[44]
  GI50: 67.1 µM (inactive)
[5]
  GI50: 34 µM (inactive)
[6]
  GI50: 42.9 µM (inactive)
[7]
  GI50: > 100 µM (inactive)
[8]
  GI50: > 100 µM (inactive)
[45]
  GI50: > 100 µM (inactive)
[9]
  GI50: 24.9 µM (inactive)
[10]
  GI50: 57.9 µM (inactive)
[11]
  GI50: 90.2 µM (inactive)
[12]
  GI50: 34.9 µM (inactive)
[13]
  GI50: 23.6 µM (inactive)
[14]
  GI50: > 100 µM (inactive)
[15]
  GI50: 38.1 µM (inactive)
[17]
  GI50: > 100 µM (inactive)
[18]
  GI50: 42.2 µM (inactive)
[46]
  GI50: > 100 µM (inactive)
[47]
  GI50: 30.7 µM (inactive)
[19]
  GI50: 50.6 µM (inactive)
[20]
  GI50: 56.1 µM (inactive)
[48]
  GI50: 94.4 µM (inactive)
[21]
  GI50: > 100 µM (inactive)
[49]
  GI50: 81.7 µM (inactive)
[23]
  GI50: 37.3 µM (inactive)
[50]
  GI50: 59 µM (inactive)
[51]
  GI50: 53 µM
[52]
  GI50: 50.5 µM (inactive)
[53]
  GI50: 22.5 µM (inactive)
[24]
  GI50: 38 µM (inactive)
[25]
  GI50: 49.7 µM (inactive)
[54]
  GI50: 35.2 µM (inactive)
[55]
  GI50: > 100 µM (inactive)
[56]
  GI50: 83 µM (inactive)
[27]
  GI50: 56.8 µM (inactive)
[28]
  GI50: 64.7 µM (inactive)
[30]
  GI50: > 100 µM (inactive)
[31]
  GI50: > 100 µM (inactive)
[57]
  GI50: 79.6 µM (inactive)
[32]
  GI50: 38.3 µM (inactive)
[33]
  GI50: 37.8 µM (inactive)
[34]
  GI50: 80.5 µM (inactive)
[35]
  GI50: 24.9 µM (inactive)

## CN(C)CCC(=O)c1ccccc1
[36]
  GI50: > 58.5 µM (inactive)
[1]
  GI50: 28.4 µM (inactive)
[37]
  GI50: > 43.7 µM (inactive)
[2]
  GI50: > 58.1 µM (inactive)
[38]
  GI50: > 57.5 µM (inactive)
[39]
  GI50: > 58.6 µM (inactive)
[40]
  GI50: 16.8 µM (inactive)
[4]
  GI50: 16.1 µM (inactive)
[41]
  GI50: 19.4 µM (inactive)
[42]
  GI50: > 100 µM (inactive)
[43]
  GI50: > 56.2 µM (inactive)
[44]
  GI50: > 100 µM (inactive)
[5]
  GI50: > 62.8 µM (inactive)
[6]
  GI50: > 61.8 µM (inactive)
[7]
  GI50: 41 µM (inactive)
[8]
  GI50: > 100 µM (inactive)
[45]
  GI50: 36.6 µM (inactive)
[9]
  GI50: 11.3 µM (inactive)
[10]
  GI50: > 58.5 µM (inactive)
[11]
  GI50: 9.04 µM (inactive)
[12]
  GI50: > 58.1 µM (inactive)
[13]
  GI50: 33.2 µM (inactive)
[14]
  GI50: 18.9 µM (inactive)
[15]
  GI50: 26.3 µM (inactive)
[16]
  GI50: 35.1 µM (inactive)
[17]
  GI50: 24.5 µM (inactive)
[18]
  GI50: > 58.2 µM (inactive)
[46]
  GI50: > 56.4 µM (inactive)
[47]
  GI50: > 43.8 µM (inactive)
[19]
  GI50: > 56.2 µM (inactive)
[20]
  GI50: 46.7 µM (inactive)
[48]
  GI50: > 71.6 µM (inactive)
[58]
  GI50: 36.4 µM (inactive)
[21]
  GI50: > 58.5 µM (inactive)
[22]
  GI50: 0.693 µM (active)
[49]
  GI50: > 55.6 µM (inactive)
[23]
  GI50: > 39.1 µM (inactive)
[50]
  GI50: > 43 µM (inactive)
[51]
  GI50: 24.1 µM
[52]
  GI50: 42.7 µM (inactive)
[53]
  GI50: > 47.8 µM (inactive)
[24]
  GI50: 27.6 µM (inactive)
[25]
  GI50: > 56.9 µM (inactive)
[59]
  GI50: 32.5 µM (inactive)
[26]
  GI50: 28.9 µM (inactive)
[54]
  GI50: 38.3 µM (inactive)
[55]
  GI50: > 56.5 µM (inactive)
[56]
  GI50: 37.8 µM (inactive)
[27]
  GI50: 19.8 µM (inactive)
[28]
  GI50: 21.5 µM (inactive)
[29]
  GI50: > 58.7 µM (inactive)
[30]
  GI50: > 57.1 µM (inactive)
[31]
  GI50: 20 µM (inactive)
[57]
  GI50: > 65.2 µM (inactive)
[32]
  GI50: 32.4 µM (inactive)
[33]
  GI50: 38.2 µM (inactive)
[34]
  GI50: > 59.4 µM (inactive)
[35]
  GI50: 23.4 µM (inactive)
